Reference: patent US10409869B2, “(R)- and (S)-1-(3-(3-N,N-dimethylaminocarbonyl)phenoxyl-4-nitrophenyl)-1-ethyl-N,N'-bis (ethylene)phosphoramidate, compositions and methods for their use and preparation” (OBI Pharma, Inc., priority 2015, dated 2019)

Tests used:
Assay type in all cases: in vivo, Cynomolgus monkeys
[1] = Body weight in monkeys, 2 mg/kg 30-min IV infusion; conditions: Day 1, Mean
Protocol: (§1) TH 3423 and TH 3424 were tested in […] naïve monkeys (1 male and one female for each compound at 2 mg/kg) with 30-min intravenous infusion, TK sampling: on Day 1 and Day 15: 0.25, 0.5, 0.75, 1 and 2 hr post infusion initiation. Serum chemistry and hematology: pre-dose (Day 1), day 5, day 8 (pre-dose), day 15 (pre-dose), day 22 and day 28. Clinical observation: Daily during the study, total 35 days. Food consumption: Daily during the study, total 35 days. Bodyweight measurement: Twice weekly for five weeks.

[2] = Serum chemistry in monkeys, 2 mg/kg 30-min IV infusion
Protocol: as §1

[3] = Plasma concentration and TK after 30-min IV infusion at 2 mg/kg; conditions: for AUC(0-inf) / AUC(0-t): Cynomolgus, cynomolgus monkey, plasma, iv, 2 mg/kg
Protocol: as §1

C[C@@H](OP(=O)(N1CC1)N1CC1)c1ccc([N+](=O)[O-])c(Oc2cccc(C(=O)N(C)C)c2)c1 (single isomer, unassigned) [TH3423]
body weight [1]: 3.50 | A/G ([2]; female, Day 1 (pre-dose)): 1.8 | ALB ([2]; female, Day 1 (pre-dose)): 42 g/L | ALP ([2]; female, Day 1 (pre-dose)): 205.5 U/L | ALT ([2]; female, Day 1 (pre-dose)): 41.7 U/L | AST ([2]; female, Day 1 (pre-dose)): 43.3 U/L | BUN ([2]; female, Day 1 (pre-dose)): 4.06 mM | CK ([2]; female, Day 1 (pre-dose)): 342 U/L | CREA ([2]; female, Day 1 (pre-dose)): 95 µM | Ca ([2]; female, Day 1 (pre-dose)): 2.39 mmol/L | GLB ([2]; female, Day 1 (pre-dose)): 24 g/L | Glu ([2]; female, Day 1 (pre-dose)): 6.03 mM | K ([2]; female, Day 1 (pre-dose)): 6.14 mmol/L | Na ([2]; female, Day 1 (pre-dose)): 146 mmol/L | TBIL ([2]; female, Day 1 (pre-dose)): 0.0 µM | TC ([2]; female, Day 1 (pre-dose)): 2.48 mM | TG ([2]; female, Day 1 (pre-dose)): 0.45 mmol/L | TP ([2]; female, Day 1 (pre-dose)): 66.0 g/L | γ-GT ([2]; female, Day 1 (pre-dose)): 41.5 U/L | A/G ([2]; female, Day 8 (pre-dose)): 1.3 | ALB ([2]; female, Day 8 (pre-dose)): 40.9 g/L | ALP ([2]; female, Day 8 (pre-dose)): 190.3 U/L | ALT ([2]; female, Day 8 (pre-dose)): 25.5 U/L | AST ([2]; female, Day 8 (pre-dose)): 57.7 U/L | BUN ([2]; female, Day 8 (pre-dose)): 7.61 mM | CK ([2]; female, Day 8 (pre-dose)): 126 U/L | CREA ([2]; female, Day 8 (pre-dose)): 120 µM | Ca ([2]; female, Day 8 (pre-dose)): 2.47 mmol/L | GLB ([2]; female, Day 8 (pre-dose)): 30.9 g/L | Glu ([2]; female, Day 8 (pre-dose)): 2.13 mM | K ([2]; female, Day 8 (pre-dose)): 4.83 mmol/L | Na ([2]; female, Day 8 (pre-dose)): 149 mmol/L | TBIL ([2]; female, Day 8 (pre-dose)): 0.4 µM | TC ([2]; female, Day 8 (pre-dose)): 3.01 mM | TG ([2]; female, Day 8 (pre-dose)): 1.17 mmol/L | TP ([2]; female, Day 8 (pre-dose)): 71.8 g/L | γ-GT ([2]; female, Day 8 (pre-dose)): 37.0 U/L | A/G ([2]; female, Day 15 (pre-dose)): 1.7 | ALB ([2]; female, Day 15 (pre-dose)): 34.2 g/L | ALP ([2]; female, Day 15 (pre-dose)): 123.6 U/L | ALT ([2]; female, Day 15 (pre-dose)): 21.1 U/L | AST ([2]; female, Day 15 (pre-dose)): 76.7 U/L | BUN ([2]; female, Day 15 (pre-dose)): 5.96 mM | CK ([2]; female, Day 15 (pre-dose)): 78 U/L | CREA ([2]; female, Day 15 (pre-dose)): 69 µM | Ca ([2]; female, Day 15 (pre-dose)): 2.36 mmol/L | GLB ([2]; female, Day 15 (pre-dose)): 20.7 g/L | Glu ([2]; female, Day 15 (pre-dose)): 2.51 mM | K ([2]; female, Day 15 (pre-dose)): 4.81 mmol/L | Na ([2]; female, Day 15 (pre-dose)): 128.17 mmol/L | TBIL ([2]; female, Day 15 (pre-dose)): 1.4 µM | TC ([2]; female, Day 15 (pre-dose)): 2.02 mM | TG ([2]; female, Day 15 (pre-dose)): 0.84 mmol/L | TP ([2]; female, Day 15 (pre-dose)): 54.9 g/L | γ-GT ([2]; female, Day 15 (pre-dose)): 29.4 U/L | A/G ([2]; male, Day 1 (pre-dose)): 1.8 | ALB ([2]; male, Day 1 (pre-dose)): 46.9 g/L | ALP ([2]; male, Day 1 (pre-dose)): 746.4 U/L | ALT ([2]; male, Day 1 (pre-dose)): 45.0 U/L | AST ([2]; male, Day 1 (pre-dose)): 37.0 U/L | BUN ([2]; male, Day 1 (pre-dose)): 3.47 mM | CK ([2]; male, Day 1 (pre-dose)): 146 U/L | CREA ([2]; male, Day 1 (pre-dose)): 66 µM | Ca ([2]; male, Day 1 (pre-dose)): 2.54 mmol/L | GLB ([2]; male, Day 1 (pre-dose)): 26 g/L | Glu ([2]; male, Day 1 (pre-dose)): 3.12 mM | K ([2]; male, Day 1 (pre-dose)): 6.92 mmol/L | Na ([2]; male, Day 1 (pre-dose)): 143 mmol/L | TBIL ([2]; male, Day 1 (pre-dose)): 5.2 µM | TC ([2]; male, Day 1 (pre-dose)): 2.1 mM | TG ([2]; male, Day 1 (pre-dose)): 0.24 mmol/L | TP ([2]; male, Day 1 (pre-dose)): 72.9 g/L | γ-GT ([2]; male, Day 1 (pre-dose)): 78.4 U/L | A/G ([2]; male, Day 8 (pre-dose)): 1.1 | ALB ([2]; male, Day 8 (pre-dose)): 39.1 g/L | ALP ([2]; male, Day 8 (pre-dose)): 540.3 U/L | ALT ([2]; male, Day 8 (pre-dose)): 21.0 U/L | AST ([2]; male, Day 8 (pre-dose)): 40.8 U/L | BUN ([2]; male, Day 8 (pre-dose)): 26.8 mM | CK ([2]; male, Day 8 (pre-dose)): 153 U/L | CREA ([2]; male, Day 8 (pre-dose)): 141 µM | Ca ([2]; male, Day 8 (pre-dose)): 2.55 mmol/L | GLB ([2]; male, Day 8 (pre-dose)): 37.1 g/L | Glu ([2]; male, Day 8 (pre-dose)): 5.28 mM | K ([2]; male, Day 8 (pre-dose)): 5.86 mmol/L | Na ([2]; male, Day 8 (pre-dose)): 112 mmol/L | TBIL ([2]; male, Day 8 (pre-dose)): 9.8 µM | TC ([2]; male, Day 8 (pre-dose)): 1.72 mM | TG ([2]; male, Day 8 (pre-dose)): 2.25 mmol/L | TP ([2]; male, Day 8 (pre-dose)): 76.2 g/L | γ-GT ([2]; male, Day 8 (pre-dose)): 37.6 U/L | Plasma concentration ([3]; 2 hr, female): BQL | AUC(0-inf) ([3]; both sexes, Mean): 770 ng·h/mL | AUC(0-t) ([3]; both sexes, Mean): 766 ng·h/mL | AUC(0-inf) ([3]; female): 766 ng·h/mL | AUC(0-t) ([3]; female): 758 ng·h/mL | AUC(0-inf) ([3]; male): 774 ng·h/mL | AUC(0-t) ([3]; male): 773 ng·h/mL
